Legend:
Experiment in all cases: relative viability (nuclei count vs DMSO), 5 days (fraction); higher = more cells survive
R406 + Navitoclax = compound: COc1cc(Nc2ncc(F)c(Nc3ccc4c(n3)NC(=O)C(C)(C)O4)n2)cc(OC)c1OC [R406] + CC1(C)CCC(c2ccc(Cl)cc2)=C(CN2CCN(c3ccc(C(=O)NS(=O)(=O)c4ccc(N[C@H](CCN5CCOCC5)CSc5ccccc5)c(S(=O)(=O)C(F)(F)F)c4)cc3)CC2)C1 [Navitoclax] (partner 0.5 µM)
In short: (§1)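 Cells from lung cancer lines were seeded into 1536-well plates and, one day later, dosed by pin tool. Treatments were either a single drug or a fixed dose of an anchor drug with five library-drug doses (not always all listed) in √10 steps. After 5 days, nuclei were stained in a one-step fixation (final 0.05% Triton X-100, 1% formaldehyde, 1 ug/ml Hoechst) and counted on 4× images, and relative viability is the treated-to-vehicle nuclei ratio, as the median of duplicate plates.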

R406 + Foretinib = compound: COc1cc(Nc2ncc(F)c(Nc3ccc4c(n3)NC(=O)C(C)(C)O4)n2)cc(OC)c1OC [R406] + COc1cc2c(Oc3ccc(NC(=O)C4(C(=O)Nc5ccc(F)cc5)CC4)cc3F)ccnc2cc1OCCCN1CCOCC1 [Foretinib] (partner 0.25 µM)
In short: as §1

Daporinad = compound: O=C(/C=C/c1cccnc1)NCCCCC1CCN(C(=O)c2ccccc2)CC1 [Daporinad]
In short: (§2)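 Acceptance criteria were a control CV below 25% and at least one doubling per plate. Lung cancer cell lines in 1536-well plates got five library-drug doses (not always all listed) √10 apart by pinning and were left 5 days with no medium change. Viability divides treated-well nuclei by vehicle-well nuclei and is the median across plates. Nuclei were counted by MetaXpress from 4× Hoechst images.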

R406 = compound: COc1cc(Nc2ncc(F)c(Nc3ccc4c(n3)NC(=O)C(C)(C)O4)n2)cc(OC)c1OC [R406]
In short: as §2

Cell Line	relative viability (R406 + Navitoclax; first compound 0.08 µM)	relative viability (R406 + Navitoclax; first compound 0.253 µM)	relative viability (R406 + Navitoclax; first compound 0.8 µM)	relative viability (R406 + Navitoclax; first compound 2.53 µM)	relative viability (R406 + Navitoclax; first compound 8 µM)	relative viability (R406 + Foretinib; first compound 0.08 µM)	relative viability (R406 + Foretinib; first compound 0.253 µM)	relative viability (R406 + Foretinib; first compound 0.8 µM)	relative viability (R406 + Foretinib; first compound 8 µM)	relative viability (Daporinad; 0.0005 µM)	relative viability (Daporinad; 0.001581 µM)	relative viability (Daporinad; 0.005 µM)	relative viability (Daporinad; 0.01581 µM)	relative viability (R406; 0.08 µM)	relative viability (R406; 0.253 µM)	relative viability (R406; 0.8 µM)	relative viability (R406; 2.53 µM)	relative viability (R406; 8 µM)	relative viability (R406 + Foretinib; first compound 2.53 µM)
NCI-H3122	1.06	0.971	1.02	1.02	0.82	0.962	0.959	0.931	0.887	0.955	1	1.05	0.984	0.948	1	0.989	0.945	0.977	–
NCI-H520	1.02	1.09	1.05	0.636	0.251	0.831	1	0.883	0.421	1.14	0.804	0.286	0.238	0.869	1.12	1.12	0.559	0.298	0.293
NCI-H727	0.39	0.44	0.46	0.381	0.325	0.954	0.841	0.851	0.697	0.931	1.06	1.06	0.884	0.817	0.888	0.964	0.806	0.668	0.752
NCI-H1734	0.789	0.982	1.13	0.813	0.607	0.812	1.07	0.997	0.448	1.04	1.14	0.975	0.453	0.985	1.18	1.16	0.269	0.418	0.52
LXF-289	0.942	1.01	1	0.931	0.251	1.01	1.03	0.969	0.238	0.959	1.1	1.09	1.1	0.976	1.06	1.04	0.956	0.845	0.999
H3255	0.488	0.731	0.541	0.312	0.14	0.868	–	0.872	0.673	0.842	1	1.06	1.19	0.943	1.16	0.989	0.859	0.873	0.878
201T	1.16	1.15	1.17	1.19	1.18	1.13	1.32	1.21	0.708	0.962	1.04	0.972	1.01	0.929	1.02	1.06	0.844	0.67	0.829
NCI-H2126	0.88	0.83	0.829	0.8	0.64	1.16	0.824	1.26	1	1.02	0.978	1.03	1.09	1.05	1.04	1.07	0.918	0.849	1.04
HOP-62	0.937	0.985	1.11	1.1	1.06	1.03	1.28	0.967	0.808	0.94	1.08	1.03	0.491	0.998	1.16	0.97	1.04	1.09	1.26
CAL-12T	1.16	1.21	1.26	1.05	1.06	1.03	1.23	1.22	0.812	0.904	1.03	0.735	0.269	0.993	1.22	1.12	0.511	0.434	1.09
NCI-H596	0.836	1.04	1.16	0.72	0.115	0.926	1	0.957	0.162	0.911	1.02	0.991	0.638	0.959	1.22	1.04	0.663	0.397	0.726
NCI-H1755	0.983	1.04	0.982	0.573	0.483	0.923	0.946	0.894	0.598	0.966	0.989	1.03	1.02	0.947	1.05	1.13	0.838	0.796	0.677
NCI-H2023	0.896	0.975	1.1	0.888	0.603	0.905	0.703	0.768	0.368	0.982	1.15	1.09	0.987	0.902	1.05	1.12	0.388	0.241	0.896
NCI-H2009	1.21	1.23	1.25	1.16	1.03	1.19	1.35	1.17	0.368	0.918	1.08	1.07	0.905	0.975	1.04	1.11	0.853	0.376	1.27
